Results on 25 molecules are retold here after US12171756B2, “NLRP3 modulators” (Innate Tumor Immunity, Inc., priority 2017, dated 2024).

Assay [1] deals with IL-1β production in PMA-differentiated THP-1 cells. In words: Measurement of IL-1β production in PMA-differentiated THP-1 cells (ELISA, 4 hours). It is filed as cell-based, human. As to conditions: assayed using one or more of the described procedures, read-out: NLRP3 hIL1B IC50. In a few lines:
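IL-1β released into supernatant was measured by ELISA after a 4-hour compound exposure (final DMSO 1%, concentrations such as 100 down to 0.1 μM). Cells: THP-1 pretreated 24 h with 10 μg/ml PMA, then trypsinized and seeded at 1×10^6/ml in 2% FBS RPMI.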
Background: An ELISA detects its analyte on a solid surface through an enzyme-linked reagent.

In assay [2] the target is T1, human TLR7 (Homo sapiens, UniProt Q9NYK1).
T1 construct: host or cells: human HEK-Blue cells (HEK293-derived) co-expressing TLR7 and an NF-kB/AP1-inducible SEAP reporter
T1 sequence (Q9NYK1 27-1049): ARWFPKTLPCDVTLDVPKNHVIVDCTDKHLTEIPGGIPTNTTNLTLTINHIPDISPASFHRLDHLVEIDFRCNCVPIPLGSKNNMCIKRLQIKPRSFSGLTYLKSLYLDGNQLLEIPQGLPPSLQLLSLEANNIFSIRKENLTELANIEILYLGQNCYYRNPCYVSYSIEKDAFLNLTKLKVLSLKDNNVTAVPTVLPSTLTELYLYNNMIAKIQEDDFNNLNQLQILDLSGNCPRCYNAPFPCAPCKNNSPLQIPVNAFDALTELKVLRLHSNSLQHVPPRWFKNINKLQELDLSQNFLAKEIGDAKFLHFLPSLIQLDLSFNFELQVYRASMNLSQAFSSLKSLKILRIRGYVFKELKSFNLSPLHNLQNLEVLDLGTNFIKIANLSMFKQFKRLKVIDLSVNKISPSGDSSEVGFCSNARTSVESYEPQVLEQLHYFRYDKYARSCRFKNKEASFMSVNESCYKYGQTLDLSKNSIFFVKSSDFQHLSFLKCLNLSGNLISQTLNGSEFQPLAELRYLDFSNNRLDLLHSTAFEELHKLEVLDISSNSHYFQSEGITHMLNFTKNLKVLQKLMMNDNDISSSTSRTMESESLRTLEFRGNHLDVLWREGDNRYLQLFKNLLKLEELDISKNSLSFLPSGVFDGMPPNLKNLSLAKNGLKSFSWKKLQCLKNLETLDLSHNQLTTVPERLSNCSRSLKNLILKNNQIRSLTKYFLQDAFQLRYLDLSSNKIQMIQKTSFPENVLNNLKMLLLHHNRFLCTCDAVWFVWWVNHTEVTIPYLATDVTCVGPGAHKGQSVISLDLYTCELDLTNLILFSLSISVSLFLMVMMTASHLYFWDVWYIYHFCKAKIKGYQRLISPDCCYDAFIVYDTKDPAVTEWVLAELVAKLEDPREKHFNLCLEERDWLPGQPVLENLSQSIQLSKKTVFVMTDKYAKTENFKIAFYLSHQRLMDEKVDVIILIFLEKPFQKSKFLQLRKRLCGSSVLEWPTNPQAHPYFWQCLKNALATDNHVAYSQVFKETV
In words: In vitro human TLR7 binding reporter assay (HEK-Blue, NF-kB/AP1-inducible SEAP). It is filed as cell-based. The note with it: HEK-Blue human TLR7 SEAP reporter cells; activity range classes; read-out: TLR7 Agonist EC50. Put shortly:
(§1)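 HEK-Blue cells expressing human TLR7 or TLR8 with NF-kB/AP1-inducible SEAP reporter, plated 24 h, then compound-treated 18 h at 37° C, 5% CO2. EC50 normalized to 100% Ymax set by 50 μM reference standard.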

Assay [3] deals with T2, human TLR8 (Homo sapiens, UniProt Q9NR97).
T2 construct: host or cells: human HEK-Blue cells (HEK293-derived) co-expressing TLR8 and an NF-kB/AP1-inducible SEAP reporter
T2 sequence (Q9NR97 27-1041): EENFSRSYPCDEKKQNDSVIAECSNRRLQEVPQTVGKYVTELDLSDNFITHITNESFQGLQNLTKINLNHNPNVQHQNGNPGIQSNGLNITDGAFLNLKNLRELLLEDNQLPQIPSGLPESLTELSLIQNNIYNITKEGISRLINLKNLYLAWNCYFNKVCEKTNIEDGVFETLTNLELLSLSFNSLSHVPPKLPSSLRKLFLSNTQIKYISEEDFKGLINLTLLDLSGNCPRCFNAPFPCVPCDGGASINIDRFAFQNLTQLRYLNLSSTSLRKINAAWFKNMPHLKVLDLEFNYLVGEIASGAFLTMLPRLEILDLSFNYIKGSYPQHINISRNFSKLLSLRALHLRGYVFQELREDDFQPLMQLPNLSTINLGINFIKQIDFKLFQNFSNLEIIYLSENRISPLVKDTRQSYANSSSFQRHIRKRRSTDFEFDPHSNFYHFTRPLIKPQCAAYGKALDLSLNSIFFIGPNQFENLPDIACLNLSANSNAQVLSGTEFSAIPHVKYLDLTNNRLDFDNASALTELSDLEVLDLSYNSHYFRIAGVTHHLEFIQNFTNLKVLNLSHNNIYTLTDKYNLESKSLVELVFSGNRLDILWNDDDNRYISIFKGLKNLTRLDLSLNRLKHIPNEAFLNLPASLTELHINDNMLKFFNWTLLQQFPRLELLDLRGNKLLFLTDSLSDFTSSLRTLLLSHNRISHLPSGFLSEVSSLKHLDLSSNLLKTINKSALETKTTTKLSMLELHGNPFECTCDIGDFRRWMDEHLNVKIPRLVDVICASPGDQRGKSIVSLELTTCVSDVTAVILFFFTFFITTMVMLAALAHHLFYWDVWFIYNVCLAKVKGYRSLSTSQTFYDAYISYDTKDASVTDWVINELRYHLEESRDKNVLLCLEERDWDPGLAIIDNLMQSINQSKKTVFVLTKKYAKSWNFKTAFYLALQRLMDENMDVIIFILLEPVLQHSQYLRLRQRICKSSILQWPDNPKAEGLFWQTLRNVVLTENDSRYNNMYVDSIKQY
In words: In vitro human TLR8 binding reporter assay (HEK-Blue, NF-kB/AP1-inducible SEAP). It counts as cell-based. The note with it: HEK-Blue human TLR8 SEAP reporter cells; activity range classes; read-out: TLR8 Agonist EC50. In a few lines:
as §1

The mark [4] stands for this setting: Homo sapiens, THP-1, human IL-1β production.

Where two headings read alike, the source gives them in different places.

A word on the IC50: it is the concentration at which inhibition is half-maximal. What is called EC50 is the concentration giving half of the maximal effect.

In the case of `Nc1cc(NCc2nc[nH]n2)c2ccc(-c3ccn[nH]3)cc2n1` [Compound 227], the IC50 in assay [1] (setting [4]) was 0.33 µM. The EC50 in assay [2] and in assay [3] was over 100 µM in each case.
As for `Nc1cc(N[C@@H]2CCNC2)c2ccc(-c3ccn[nH]3)cc2n1` [Compound 323], the IC50 in assay [1] (human IL-1β production) was 5.72 µM. The half-maximal effective concentration (EC50) in assay [2] and in assay [3] was over 100 µM each time.
`C[C@H](O)CNc1cc(N)nc2cc(-c3ccn[nH]3)ccc12` [Compound 134]: in assay [1] (setting [4]), the IC50 turned out to be 0.29 µM. Also, the 50% effective concentration (EC50) in assay [2] and in assay [3] was over 100 µM throughout.
In the case of `Nc1cc(N2CC[C@@H](O)C2)c2ccc(-c3ccn[nH]3)cc2n1` [Compound 143], the IC50 in assay [1] (setting [4]) was found to be 5.81 µM. The EC50 in assay [2] and in assay [3] was over 100 µM each time.
As to `Nc1cc(NCCc2ccccn2)c2ccc(-n3cccn3)cc2n1` [Compound 293], in assay [1] (setting [4]), the IC50 stood at 0.87 µM. In addition, the 50% effective concentration (EC50) in assay [2] and in assay [3] was over 100 µM each time.
As for “3-[4-amino-7-(1H-pyrazol-3-yl)-[1,3]oxazolo[4,5-c]quinolin-2-yl]propan-1-ol [Compound 107]”, the 50% inhibitory concentration (IC50) in assay [1] (human IL-1β production) turned out to be 0.34 µM. In addition, the half-maximal effective concentration (EC50) in assay [2] and in assay [3] was over 100 µM in each case.
Regarding `Nc1cc(NCCc2cccnn2)c2ccc(-c3ccsc3)cc2n1` [Compound 341, N4-(2-(pyridazin-3-yl)ethyl)-7-(thiophen-3-yl)quinolin-2,4-diamine], the IC50 in assay [1] (setting [4]) is 0.62 µM. In addition, the half-maximal effective concentration (EC50) in assay [2] and in assay [3] was over 100 µM throughout.
As for `Nc1cc(N[C@@H]2CC[C@@H](O)C2)c2ccc(-c3ccn[nH]3)cc2n1` [Compound 248], the IC50 in assay [1] (setting [4]) is 0.33 µM. The EC50 in assay [2] and in assay [3] was over 100 µM throughout.
Consider `Nc1cc(NCCc2cc[nH]n2)c2ccc(-c3ccn[nH]3)cc2n1` [Compound 261], for which the IC50 in assay [1] (setting [4]) worked out at 0.14 µM. In addition, the 50% effective concentration (EC50) in assay [2] and in assay [3] was over 100 µM each time.
For `C[C@@H](O)CNc1cc(N)nc2cc(-c3ccn[nH]3)ccc12` [Compound 133], the 50% inhibitory concentration (IC50) in assay [1] (setting [4]) is 0.3 µM. For the same molecule, the EC50 in assay [2] and in assay [3] was over 100 µM in each case.
Consider `CN(C)C(=O)NCCCNc1cc(N)nc2cc(-c3ccn[nH]3)ccc12` [Compound 214, 3-(3-((2-amino-7-(1H-pyrazol-5-yl)quinolin-4-yl)amino)propyl)-1,1-dimethylurea, 2TFA], for which the concentration for half-maximal inhibition (IC50) in assay [1] (setting [4]) turned out to be 4.61 µM. Besides, the 50% effective concentration (EC50) in assay [2] and in assay [3] was over 100 µM in each case.
Take `Nc1nc2cc(-c3ccn[nH]3)ccc2cc1CN1CCOCC1` [Compound 115]: in assay [1] (setting [4]), the half-maximal inhibitory concentration (IC50) came out at 3.04 µM. Also, the concentration giving a half-maximal response (EC50) in assay [2] and in assay [3] was over 100 µM throughout.
As for `Nc1cc(N[C@H]2CCCOC2)c2ccc(-c3ccn[nH]3)cc2n1` [Compound 288], in assay [1] (setting [4]), the 50% inhibitory concentration (IC50) was found to be 0.39 µM. The EC50 in assay [2] and in assay [3] was over 100 µM each time.
For `Nc1cc(-n2ccnc2)c2ccc(-c3ccn[nH]3)cc2n1` [Compound 167, 4-(1H-imidazol-1-yl)-7-(1H-pyrazol-5-yl)quinolin-2-amine], in assay [1] (setting [4]), the half-inhibitory concentration (IC50) worked out at 8.33 µM. In addition, the EC50 in assay [2] and in assay [3] was over 100 µM in each case.
As for `Nc1cc(NCCc2cccnc2)c2ccc(-c3ccn[nH]3)cc2n1` [Compound 284], in assay [1] (setting [4]), the IC50 was 0.38 µM. In addition, the EC50 in assay [2] and in assay [3] was over 100 µM each time.
In the case of `Cn1ccnc1C(=O)NCCCNc1cc(N)nc2cc(-c3ccn[nH]3)ccc12` [Compound 209, N-(3-((2-amino-7-(1H-pyrazol-5-yl)quinolin-4-yl)amino)propyl)-1-methyl-1H-imidazole-2-carboxamide, 2TFA], the IC50 in assay [1] (setting [4]) came out at 1.96 µM. In addition, the EC50 in assay [2] and in assay [3] was over 100 µM throughout.
Regarding `Nc1nc2cc(-c3cc[nH]n3)ccc2cc1CCCCCOCc1ccccc1` [Compound 106, 3-[5-(benzyloxy)pentyl]-7-(1H-pyrazol-3-yl)quinolin-2-amine], the IC50 in assay [1] (setting [4]) amounted to 3.82 µM. Also, the EC50 in assay [2] and in assay [3] was over 100 µM in each case.
On to `Nc1cc(N[C@@H]2CCCC[C@@H]2O)c2ccc(-c3ccn[nH]3)cc2n1` [Compound 251], for which the IC50 in assay [1] (setting [4]) was found to be 0.37 µM. Moreover, the concentration giving a half-maximal response (EC50) in assay [2] and in assay [3] was over 100 µM in each case.
For `Nc1cc(N[C@H]2C[C@@H](O)C2)c2ccc(-c3ccn[nH]3)cc2n1` [Compound 234], in assay [1] (setting [4]), the half-maximal inhibitory concentration (IC50) worked out at 0.23 µM. In addition, the EC50 in assay [2] and in assay [3] was over 100 µM in each case.
For `CC(C)(O)CNc1cc(N)nc2cc(-n3cccn3)ccc12` [Compound 176], in assay [1] (setting [4]), the IC50 was 0.7 µM. Further, the EC50 in assay [2] and in assay [3] was over 100 µM in each case.
As for `Nc1cc(NCCc2cccnn2)c2ccc(-n3cccn3)cc2n1` [Compound 343, 7-(1H-pyrazol-1-yl)-N4-(2-(pyridazin-3-yl)ethyl)quinoline-2,4-diamine], the IC50 in assay [1] (setting [4]) turned out to be 0.61 µM. The concentration for a half-maximal effect (EC50) in assay [2] and in assay [3] was over 100 µM each time.
Regarding `CN(C)C(=O)NCCNc1cc(N)nc2cc(-c3ccn[nH]3)ccc12` [Compound 208, 3-(2-((2-amino-7-(1H-pyrazol-5-yl)quinolin-4-yl)amino)ethyl)-1,1-dimethylurea], the concentration for half-maximal inhibition (IC50) in assay [1] (setting [4]) was determined as 1.55 µM. Also, the 50% effective concentration (EC50) in assay [2] and in assay [3] was over 100 µM in each case.
Turning to `CCN(CCCc1cc2ccc(-c3cc[nH]n3)cc2nc1N)C(C)=O` [Compound 112, N-[3-[2-amino-7-(1H-pyrazol-3-yl)quinolin-3-yl]propyl]-N-ethylacetamide], in assay [1] (setting [4]), the IC50 was found to be 2.56 µM. The concentration for a half-maximal effect (EC50) in assay [2] and in assay [3] was over 100 µM each time.
On to `Nc1cc(N[C@H]2CC[C@H](O)CC2)c2ccc(-c3ccn[nH]3)cc2n1` [Compound 282], for which the concentration for half-maximal inhibition (IC50) in assay [1] (setting [4]) stood at 5.66 µM. Moreover, the EC50 in assay [2] and in assay [3] was over 100 µM throughout.
`Cc1nc(C(=O)NCCNc2cc(N)nc3cc(-c4ccn[nH]4)ccc23)cs1` [Compound 203, N-(2-((2-amino-7-(1H-pyrazol-5-yl)quinolin-4-yl)amino)ethyl)-2-methylthiazole-4-carboxamide]: the 50% inhibitory concentration (IC50) in assay [1] (setting [4]) was found to be 0.19 µM. The EC50 in assay [2] and in assay [3] was over 100 µM in each case.
